Measurements from paper PMC2656214, “A circuit supporting concentration-invariant odor perception in Drosophila” (Journal of Biology, 2009).

Experiments:
Assay in all cases: G-CaMP calcium imaging of OSN axon terminals
Assay type in all cases: cell-based
Details in all cases: 10^-2 odor dilution in paraffin oil, 1 s pulse
[1] = target: T1, Or42a (Drosophila melanogaster, UniProt Q9V9I2)
T1 construct: native receptor in Or42a olfactory sensory neuron of larva; G-CaMP calcium imaging; with Odorant receptor coreceptor
T1 sequence (Q9V9I2 1-406): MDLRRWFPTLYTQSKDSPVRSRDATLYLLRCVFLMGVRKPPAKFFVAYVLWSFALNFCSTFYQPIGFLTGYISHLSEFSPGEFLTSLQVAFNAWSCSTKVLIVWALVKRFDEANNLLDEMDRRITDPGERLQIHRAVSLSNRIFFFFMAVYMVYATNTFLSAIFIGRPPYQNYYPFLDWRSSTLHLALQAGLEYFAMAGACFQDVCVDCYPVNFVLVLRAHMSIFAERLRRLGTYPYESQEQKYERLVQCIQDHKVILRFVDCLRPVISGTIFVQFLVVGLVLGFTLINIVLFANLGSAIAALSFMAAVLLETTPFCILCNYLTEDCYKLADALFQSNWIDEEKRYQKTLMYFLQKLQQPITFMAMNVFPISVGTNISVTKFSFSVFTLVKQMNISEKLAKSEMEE
T1 sequence (Q9VNB5 1-486 partner): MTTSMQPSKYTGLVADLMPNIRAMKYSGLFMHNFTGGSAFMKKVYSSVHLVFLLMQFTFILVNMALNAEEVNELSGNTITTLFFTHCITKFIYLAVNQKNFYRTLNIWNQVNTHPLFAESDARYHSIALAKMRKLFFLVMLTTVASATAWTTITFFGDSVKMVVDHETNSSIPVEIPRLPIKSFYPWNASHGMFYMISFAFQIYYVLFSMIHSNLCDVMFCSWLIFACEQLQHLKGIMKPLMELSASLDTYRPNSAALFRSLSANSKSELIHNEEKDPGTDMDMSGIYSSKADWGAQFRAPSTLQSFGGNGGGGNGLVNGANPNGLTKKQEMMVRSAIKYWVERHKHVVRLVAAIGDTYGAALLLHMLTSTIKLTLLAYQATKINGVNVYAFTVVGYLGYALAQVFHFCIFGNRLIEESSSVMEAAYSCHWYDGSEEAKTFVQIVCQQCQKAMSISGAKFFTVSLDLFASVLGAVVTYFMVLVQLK

[2] = target: T2, Or35a (Drosophila melanogaster, UniProt Q9V3Q2)
T2 construct: native receptor in Or35a olfactory sensory neuron of larva; G-CaMP1.3 calcium imaging at axon terminals; with Odorant receptor coreceptor
T2 sequence (Q9V3Q2 1-409): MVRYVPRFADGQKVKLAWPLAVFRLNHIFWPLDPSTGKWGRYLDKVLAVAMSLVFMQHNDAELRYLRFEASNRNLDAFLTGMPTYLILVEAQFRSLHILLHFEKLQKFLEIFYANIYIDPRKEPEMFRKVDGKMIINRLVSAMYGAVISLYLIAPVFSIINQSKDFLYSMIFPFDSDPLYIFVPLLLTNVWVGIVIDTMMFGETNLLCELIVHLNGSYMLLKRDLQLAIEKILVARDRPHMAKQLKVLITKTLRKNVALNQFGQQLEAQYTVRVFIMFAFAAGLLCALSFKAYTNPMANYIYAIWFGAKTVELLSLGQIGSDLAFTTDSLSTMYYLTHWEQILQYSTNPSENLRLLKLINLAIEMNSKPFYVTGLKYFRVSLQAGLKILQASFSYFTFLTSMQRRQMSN
T2 sequence (Q9VNB5 1-486 partner): T1 sequence (Q9VNB5 1-486 partner)

[3] = target: T3, Or82a (Drosophila melanogaster, UniProt P82986)
T3 construct: native receptor in Or82a olfactory sensory neuron of larva; G-CaMP1.3 calcium imaging at axon terminals; with Odorant receptor coreceptor
T3 sequence (P82986 1-385): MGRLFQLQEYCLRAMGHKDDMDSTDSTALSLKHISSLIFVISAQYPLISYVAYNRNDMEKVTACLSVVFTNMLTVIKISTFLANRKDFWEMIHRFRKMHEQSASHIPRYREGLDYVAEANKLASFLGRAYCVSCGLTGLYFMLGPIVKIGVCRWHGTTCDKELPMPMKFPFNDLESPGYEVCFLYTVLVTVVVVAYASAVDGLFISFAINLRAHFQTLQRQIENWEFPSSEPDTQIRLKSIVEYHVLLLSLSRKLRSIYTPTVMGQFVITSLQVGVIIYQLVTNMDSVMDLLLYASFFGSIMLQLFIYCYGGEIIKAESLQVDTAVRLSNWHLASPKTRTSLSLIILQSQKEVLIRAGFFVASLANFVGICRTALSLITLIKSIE
T3 sequence (Q9VNB5 1-486 partner): T1 sequence (Q9VNB5 1-486 partner)

Row | SMILES | G-CaMP calcium imaging of OSN axon terminals [2] | further results
1 | CCCCCC(C)=O [2-Heptanone] | – | G-CaMP calcium imaging of OSN axon terminals [1]: 2-Heptanone, which selectively activates Or42a but not Or42b OSNs
2 | CCCCCCOC(C)=O [hexyl acetate] | hexyl acetate and cyclohexanone selectively activated only Or35a | –
3 | CC(=O)OC/C=C(\C)CCC=C(C)C [geranyl acetate] | – | G-CaMP calcium imaging of OSN axon terminals [3]: Or82a-expressing neurons responded only to geranyl acetate
4 | O=C1CCCCC1 [cyclohexanone] | hexyl acetate and cyclohexanone selectively activated only Or35a | –
